These results are taken from patent publication US9999620B2, “CaMKK-β as a target for treating cancer” (Duke University, priority 2010, dated 2018).

Common to all, as to format: cell-based, human
Assay [1] concerns AMPK phosphorylation (T172) by CaMKKβ. The assay is described as follows: Western blot of phospho-AMPK. As to conditions: STO-609 pretreatment. Background: A western blot detects proteins with antibodies after separation by electrophoresis.
Description: A, LNCaP cells were pretreated for 1 h+/−30 mM STO-609 prior to overnight treatment+/−10 nM R1881. Cell lysates were then subjected to western blot analysis and subsequent densitometry (right). CaMKKβ levels were normalized to GAPDH. Phospho-CaMKI (p-CaMKI) levels were normalized to total CaMKI. Phospho-AMPK (p-AMPK) levels were normalized to total AMPK. Results are expressed as fold induction/phosphorylation over double vehicle-treated cells+SE (n=3). *, significant changes from vehicle-treated cells. B, LNCaP cells stably expressing either GAL4 or CaMKKβ □were treated overnight+/−10 nM R1881. Cell lysates were then subjected as in A to western blot analysis and densitometry (right). Results are expressed as fold induction/phosphorylation over LNCaP-GAL4 vehicle-treated cells+SE (n=3). *, significant changes from LNCaP-GAL4 vehicle-treated cells. […]
A, VCaP cells were treated for 24 h+/−10 nM R1881. […] Results are expressed as fold induction/phosphorylation over vehicle-treated cells+SE (n=2). *, P<0.05 indicates significant changes from vehicle-treated cells. […]
Western blot analysis. […] For each sample, protein levels were determined by densitometry using the ImageJ software (NIH) and normalizing to indicated controls.
In assay [2] the test system is CaMKI phosphorylation (T177) by CaMKKβ. The assay is described as follows: Western blot of phospho-CaMKI (readout of CaMKKβ activity). As to conditions: for androgen-increased phosphorylation of CaMKI (T177): STO-609 pretreatment.
Description: A, LNCaP cells were pretreated for 1 h with vehicle, 10 or 30 mM STO-609 prior to overnight treatment with vehicle, 100 pM or 10 nM R1881. Cell lysates were then subjected to western blot analysis and subsequent densitometry (right). Phospho-CaMKI (p-CaMKI) levels were normalized to total CaMKI. Results are expressed as fold induction/phosphorylation over double vehicle-treated cells+SE (n=2). *, P<0.05 indicates significant changes from vehicle-treated cells. ^#, P<0.05 indicates significant changes from vehicle (no STO-609)-treated cells.
A, LNCaP cells were pretreated for 1 h+/−30 mM STO-609 prior to overnight treatment+/−10 nM R1881. Cell lysates were then subjected to western blot analysis and subsequent densitometry (right). CaMKKβ levels were normalized to GAPDH. Phospho-CaMKI (p-CaMKI) levels were normalized to total CaMKI. Phospho-AMPK (p-AMPK) levels were normalized to total AMPK. Results are expressed as fold induction/phosphorylation over double vehicle-treated cells+SE (n=3). *, significant changes from vehicle-treated cells.
Assay [3] relates to VCaP cells. The assay is described as follows: Cell proliferation assay (FluoReporter Blue DNA content). The conditions noted are these: +/-1 nM R1881 and +/-30 mM STO-609 on d 3, d 5, d 7, read on d 10. From the text:
FIG. 6. CaMKKβ activity in androgen-mediated cell migration in prostate cancer cells. […] Cell lysates were then subjected to western blot analysis and subsequent densitometry (right). Phospho-[…]) levels were normalized to total CaMKI. Results are expressed as fold induction/phosphorylation over double vehicle-treated cells+SE (n=2). *, P<0.05 indicates significant changes from vehicle-treated cells. ^#, P<0.05 indicates significant changes from vehicle (no STO-609)-treated cells. B, VCaP cells were plated in 96-well plates and grown for 3 d. […] On d 10, cells were lysed and the relative number of cells was measured with the fluorescent DNA binding dye FluoReporter Blue. Each sample was performed in triplicate, and results from a representative experiment are shown. […] Cells were then dissociated and reseeded into the top chamber for a Boyden dual chamber migration assay. […] After 16 h, migrated cells were fixed, stained with crystal violet and counted in three different microscopic fields and added together. […] Proliferation assays were performed as previously described (12) by measuring the cellular DNA content using the FluoReporter Blue Fluorometric double-stranded DNA Quantitation Kit (Invitrogen) as per the manufacturer's protocol.

Assay [4] deals with VCaP cells. The assay is described as follows: Boyden dual chamber migration assay. As to conditions: 1 h +/-30 mM STO-609, overnight +/-10 nM R1881, 16 h migration, 5% FBS chemoattractant. From the text:
FIG. 6. CaMKKβ activity in androgen-mediated cell migration in prostate cancer cells. […] Cell lysates were then subjected to western blot analysis and subsequent densitometry (right). Phospho-[…]) levels were normalized to total CaMKI. Results are expressed as fold induction/phosphorylation over double vehicle-treated cells+SE (n=2). *, P<0.05 indicates significant changes from vehicle-treated cells. ^#, P<0.05 indicates significant changes from vehicle (no STO-609)-treated cells. B, VCaP cells were plated in 96-well plates and grown for 3 d. […] On d 10, cells were lysed and the relative number of cells was measured with the fluorescent DNA binding dye FluoReporter Blue. Each sample was performed in triplicate, and results from a representative experiment are shown. […] Cells were then dissociated and reseeded into the top chamber for a Boyden dual chamber migration assay. Fresh medium with the corresponding treatments was added to the top and bottom chambers while either no chemoattractant or 5% FBS (serum) was added to the bottom chamber. After 16 h, migrated cells were fixed, stained with crystal violet and counted in three different microscopic fields and added together. […]

The subject of the next assay is LNCaP cells. The assay is described as follows: Cell proliferation assay (FluoReporter Blue DNA content). The conditions noted are these: +/-1 nM R1881 and +/-30 mM STO-609 on d 3, d 5, d 7, read on d 10. The method, then:
FIG. 7. CaMKKβ activity in the androgen-mediated migration and invasion of prostate cancer cells. A, LNCaP cells were plated in 96-well plates and grown for 3 d. […] On d 10, cells were lysed and the relative number of cells was measured with the fluorescent DNA binding dye FluoReporter Blue. Each sample was performed in triplicate, and results from a representative experiment are shown. […] Cells were then dissociated and reseeded into the top chamber for a Boyden migration or Matrigel extracellular matrix invasion assay. Fresh medium with the corresponding treatments was added to the top and bottom chambers while either no chemoattractant or 5% FBS (serum) was added to the bottom chamber. After 16 h, migrated cells were fixed, stained and counted in three different microscopic fields and added together. […] C top, LNCaP cells were transfected with indicated siRNAs. […] D right, LNCaP cells stably expressing either GAL4 (control) or CaMKKβ were subjected to a migration assay as described in B using +/−5% FBS as chemoattractant. The results are expressed as mean+SE (n=3). *, significant changes from LNCaP-GAL4 cells. D left, western blot confirming CaMKKβ […]expression. […] Proliferation assays were performed as previously described (12) by measuring the cellular DNA content using the FluoReporter Blue Fluorometric double-stranded DNA Quantitation Kit (Invitrogen) as per the manufacturer's protocol.

Structures are written as SMILES.

With `O=C(O)c1ccc2c3c1cccc3c(=O)n1c3ccccc3nc21` [STO-609], the “androgen-increased phosphorylation of AMPK (T172)” value in assay [1] (LNCaP, 10 nM R1881) is recorded as “reversed”; in assay [1] (VCaP) it was “reversed”. Moreover, the “CaMKKβ activity (phospho-CaMKI levels)” value in assay [2] (LNCaP, 1 h pretreatment with 10 or 30 mM STO-609, then overnight 100 pM or 10 nM R1881) is “suppressed CaMKKβ activity”. Also, the “androgen-increased phosphorylation of CaMKI (T177)” value is “reversed” in assay [2] (LNCaP, 10 nM R1881) and “reversed” in assay [2] (VCaP). The “effect on cell number (androgen-mediated cellular growth)” value in the assay on VCaP cells [3] and with LNCaP cells was “no significant effect” each time. For the same molecule, in the assay with VCaP cells [4], the androgen-mediated migration result is given as “blocked the androgen-mediated migration”.
